Laboratory results taken from US12559529B2, “NPY2 receptor agonists” (Boehringer Ingelheim International GmbH, priority 2019, dated 2026).
pKi: −log10 of the molar value. *1 amine or outer side, *2 acyl side, *3 side chain or, on linkers, in order; H or OH if unused. Where a SMILES comes first, the peptide text is derived from it. Side-chain parts run from the residue outwards. The star is where a group is joined. C18 diacid = O=C(O)CCCCCCCCCCCCCCCCC(=O)*; γGlu = O=C(O)[C@H](CCC(=O)[*:2])N[*:1]; Isovaleryl = CC(C)CC(=O)*; AEEA = NCCOCCOCC(=O)O

Each compound was assayed against T1, Human Neuropeptide Y2 Receptor (Homo sapiens, UniProt P49146) (assay: Radioligand binding competition assay (RLB)). Conditions: Table 3; human 125I-PYY (1-36) 0.02 nM, Y2 receptor membranes; read-out: Ki.
T1 construct: purchased CHEMICON HTS066M
T1 sequence (P49146 1-381): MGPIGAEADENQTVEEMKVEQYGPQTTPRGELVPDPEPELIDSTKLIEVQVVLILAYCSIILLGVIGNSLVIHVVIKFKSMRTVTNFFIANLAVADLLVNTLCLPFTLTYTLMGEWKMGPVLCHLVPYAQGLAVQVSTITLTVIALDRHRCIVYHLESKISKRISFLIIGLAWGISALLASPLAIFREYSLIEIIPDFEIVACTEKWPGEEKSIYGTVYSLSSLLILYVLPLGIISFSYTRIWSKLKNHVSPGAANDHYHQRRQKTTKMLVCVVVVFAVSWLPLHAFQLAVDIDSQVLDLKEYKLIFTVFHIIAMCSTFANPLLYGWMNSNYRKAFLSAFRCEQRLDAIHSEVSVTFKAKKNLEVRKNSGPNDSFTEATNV
Outline: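 Membranes from cells expressing human Y2 receptor (0.5 μg protein/well) were incubated with radioligand and serially diluted peptides in 50 mM HEPES, 5 mM MgCl2, 1 mM CaCl2, 0.2% ovalbumin, pH 7.4, for 2 h at room temperature with shaking. Bound radioactivity was collected by filtration and counted; IC50 from sigmoidal nonlinear regression.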

**Q.** How did the pKi turn out when `CC(C)CC(=O)N[C@@H](C)C(=O)N1CCC[C@H]1C(=O)N[C@@H](CCC(=O)O)C(=O)N[C@@H](CCCCNC(=O)COCCOCCNC(=O)COCCOCCNC(=O)CC[C@H](NC(=O)CCCCCCCCCCCCCCCCC(=O)O)C(=O)O)C(=O)N1CCC[C@H]1C(=O)N[C@@H](CCC(=O)O)C(=O)N[C@@H](CCC(=O)O)C(=O)N[C@@H](CC(=O)O)C(=O)N[C@@H](C)C(=O)N[C@H](C(=O)N1CCC[C@H]1C(=O)N[C@@H](CCC(=O)O)C(=O)N[C@@H](CCC(=O)O)C(=O)N[C@H](C(=O)N[C@@H](CCC(N)=O)C(=O)N[C@@H](CCCNC(=N)N)C(=O)N[C@@H](Cc1ccc(O)cc1)C(=O)N[C@@H](Cc1ccc(O)cc1)C(=O)N[C@H](C(=O)N[C@@H](CO)C(=O)N[C@@H](CC(C)C)C(=O)N[C@@H](CCCNC(=N)N)C(=O)N[C@@H](Cc1c[nH]cn1)C(=O)N[C@@H](Cc1ccc(O)cc1)C(=O)N[C@@H](Cc1ccc(O)cc1)C(=O)N[C@@H](CC(N)=O)C(=O)N[C@@H](Cc1c[nH]c2ccccc12)C(=O)N[C@@H](CC(C)C)C(=O)N[C@H](C(=O)N[C@@H](CCCNC(=N)N)C(=O)N[C@@H](CCC(N)=O)C(=O)N[C@@H](CCCNC(=N)N)C(=O)N[C@@H](Cc1ccc(O)cc1)C(N)=O)[C@@H](C)O)C(C)C)[C@@H](C)O)[C@@H](C)O` [Compound 40, N{alpha-4}-(3-methylbutanoyl)-N{epsilon-7}-[2-(2-{2-[2-(2-{2-[(4S)-4-carboxy-4-(17-carboxyheptadecanamido)butanamido]ethoxy}ethoxy)acetamido]ethoxy}ethoxy)acetamido]-[4A,7K,9E,13T,17T,18Q,22V,28Y,30W,31L]hPYY (4-36)] was run?
**A.** 8.92

**Q.** `CC(C)CC(=O)N[C@@H](C)C(=O)N1CCC[C@H]1C(=O)N[C@@H](CCC(=O)O)C(=O)N[C@@H](CCCCNC(=O)COCCOCCNC(=O)COCCOCCNC(=O)CC[C@H](NC(=O)CCCCCCCCCCCCCCCCC(=O)O)C(=O)O)C(=O)N1CCC[C@H]1C(=O)N[C@@H](CCC(=O)O)C(=O)N[C@@H](CCC(=O)O)C(=O)N[C@@H](C)C(=O)N[C@@H](C)C(=O)N[C@@H](CO)C(=O)N1CCC[C@H]1C(=O)N[C@@H](CCC(=O)O)C(=O)N[C@@H](CCC(=O)O)C(=O)N[C@@H](CC(C)C)C(=O)N[C@@H](CCC(N)=O)C(=O)N[C@@H](CCCNC(=N)N)C(=O)N[C@@H](Cc1ccc(O)cc1)C(=O)N[C@@H](Cc1ccc(O)cc1)C(=O)N[C@H](C(=O)N[C@@H](CO)C(=O)N[C@H](C(=O)N[C@@H](CCCNC(=N)N)C(=O)N[C@@H](Cc1c[nH]cn1)C(=O)N[C@@H](Cc1ccc(O)cc1)C(=O)N[C@@H](Cc1ccc(O)cc1)C(=O)N[C@@H](CC(N)=O)C(=O)N[C@@H](Cc1c[nH]c2ccccc12)C(=O)N[C@@H](CC(C)C)C(=O)N[C@H](C(=O)N[C@@H](CCCNC(=N)N)C(=O)N[C@@H](CCC(N)=O)C(=O)N[C@@H](CCCNC(=N)N)C(=O)N[C@@H](Cc1ccc(O)cc1)C(N)=O)[C@@H](C)O)[C@@H](C)O)C(C)C` [Compound 42, N{alpha-4}-(3-methylbutanoyl)-N{epsilon-7}-[2-(2-{2-[2-(2-{2-[(4S)-4-carboxy-4-(17-carboxyheptadecanamido)butanamido]ethoxy}ethoxy)acetamido]ethoxy}ethoxy)acetamido]-[4A,7K,9E,11A,18Q,22V,24T,28Y,30W,31L]hPYY (4-36)] (Isovaleryl-APEK([AEEA-AEEA-γGlu-C18 diacid])PEEAASPEELQRYYVSTRHYYNWLTRQRY-NH2) was tested. Which pKi did it give?
**A.** 8.23

**Q.** With `CC(C)CC(=O)N[C@@H](C)C(=O)N1CCC[C@H]1C(=O)N[C@@H](CCC(=O)O)C(=O)N[C@@H](CCCCNC(=O)COCCOCCNC(=O)COCCOCCNC(=O)CC[C@H](NC(=O)CCCCCCCCCCCCCCCCC(=O)O)C(=O)O)C(=O)N1CCC[C@H]1C(=O)N[C@@H](CCC(=O)O)C(=O)N[C@@H](C)C(=O)N1CCC[C@H]1C(=O)N[C@@H](C)C(=O)N[C@@H](CO)C(=O)N1CCC[C@H]1C(=O)N[C@@H](CCC(=O)O)C(=O)N[C@@H](CCC(=O)O)C(=O)N[C@@H](CC(C)C)C(=O)N[C@@H](CCC(N)=O)C(=O)N[C@@H](CCCNC(=N)N)C(=O)N[C@@H](Cc1ccc(O)cc1)C(=O)N[C@@H](Cc1ccc(O)cc1)C(=O)N[C@H](C(=O)N[C@@H](CO)C(=O)N[C@@H](CC(C)C)C(=O)N[C@@H](CCCNC(=N)N)C(=O)N[C@@H](Cc1c[nH]cn1)C(=O)N[C@@H](Cc1ccc(O)cc1)C(=O)N[C@@H](Cc1ccc(O)cc1)C(=O)N[C@@H](CC(N)=O)C(=O)N[C@@H](Cc1c[nH]c2ccccc12)C(=O)N[C@@H](CC(C)C)C(=O)N[C@H](C(=O)N[C@@H](CCCNC(=N)N)C(=O)N[C@@H](CCC(N)=O)C(=O)N[C@@H](CCCNC(=N)N)C(=O)N[C@@H](Cc1ccc(O)cc1)C(N)=O)[C@@H](C)O)C(C)C` [Compound 43, N{alpha-4}-(3-methylbutanoyl)-N{epsilon-7}-[2-(2-{2-[2-(2-{2-[(4S)-4-carboxy-4-(17-carboxyheptadecanamido)butanamido]ethoxy}ethoxy)acetamido]ethoxy}ethoxy)acetamido]-[4A,7K,9E,10A,11P,18Q,22V,28Y,30W,31L]hPYY (4-36)] (Isovaleryl-APEK([AEEA-AEEA-γGlu-C18 diacid])PEAPASPEELQRYYVSLRHYYNWLTRQRY-NH2) as the compound, how does the pKi read?
**A.** 9.40

**Q.** How did the pKi turn out when `CC[C@H](C)[C@H](NC(=O)[C@H](Cc1c[nH]c2ccccc12)NC(=O)[C@H](CC(N)=O)NC(=O)[C@H](Cc1ccc(O)cc1)NC(=O)[C@H](Cc1ccc(O)cc1)NC(=O)[C@H](Cc1c[nH]cn1)NC(=O)[C@H](CCCNC(=N)N)NC(=O)[C@H](CC(C)C)NC(=O)[C@H](CO)NC(=O)[C@@H](NC(=O)[C@H](Cc1ccc(O)cc1)NC(=O)[C@H](Cc1ccc(O)cc1)NC(=O)[C@H](CCCNC(=N)N)NC(=O)[C@H](CCC(N)=O)NC(=O)[C@H](CC(C)C)NC(=O)[C@H](CCC(=O)O)NC(=O)[C@H](CCC(=O)O)NC(=O)[C@@H]1CCCN1C(=O)[C@H](CO)NC(=O)[C@H](C)NC(=O)[C@H](CCC(=O)O)NC(=O)[C@H](CCC(=O)O)NC(=O)[C@H](CCC(=O)O)NC(=O)[C@@H]1CCCN1C(=O)[C@H](CCCCNC(=O)COCCOCCNC(=O)COCCOCCNC(=O)CC[C@H](NC(=O)CCCCCCCCCCCCCCCCC(=O)O)C(=O)O)NC(=O)[C@H](CCC(=O)O)NC(=O)[C@@H]1CCCN1C(=O)[C@H](C)NC(=O)CC(C)C)C(C)C)C(=O)N[C@H](C(=O)N[C@@H](CCCNC(=N)N)C(=O)N[C@@H](CCC(N)=O)C(=O)N[C@@H](CCCNC(=N)N)C(=O)N[C@@H](Cc1ccc(O)cc1)C(N)=O)[C@@H](C)O` [Compound 44, N{alpha-4}-(3-methylbutanoyl)-N{epsilon-7}-[2-(2-{2-[2-(2-{2-[(4S)-4-carboxy-4-(17-carboxyheptadecanamido)butanamido]ethoxy}ethoxy)acetamido]ethoxy}ethoxy)acetamido]-[4A,7K,9E,11E,18Q,22V,28Y,30W,31I]hPYY (4-36)] was run?
**A.** 8.35

**Q.** `CC(C)CC(=O)N[C@@H](C)C(=O)N1CCC[C@H]1C(=O)N[C@@H](CCC(=O)O)C(=O)N[C@@H](CCCCNC(=O)COCCOCCNC(=O)COCCOCCNC(=O)CC[C@H](NC(=O)CCCCCCCCCCCCCCCCC(=O)O)C(=O)O)C(=O)N1CCC[C@H]1C(=O)N[C@@H](CCC(=O)O)C(=O)N[C@@H](CCC(=O)O)C(=O)N[C@@H](CCC(=O)O)C(=O)N[C@@H](C)C(=O)N[C@@H](CO)C(=O)N1CCC[C@H]1C(=O)N[C@@H](CCC(=O)O)C(=O)N[C@@H](CO)C(=O)N[C@@H](CC(C)C)C(=O)N[C@@H](CCC(N)=O)C(=O)N[C@@H](CCCNC(=N)N)C(=O)N[C@@H](Cc1ccc(O)cc1)C(=O)N[C@@H](Cc1ccc(O)cc1)C(=O)N[C@H](C(=O)N[C@@H](CO)C(=O)N[C@@H](CC(C)C)C(=O)N[C@@H](CCCNC(=N)N)C(=O)N[C@@H](Cc1c[nH]cn1)C(=O)N[C@@H](Cc1ccc(O)cc1)C(=O)N[C@@H](Cc1ccc(O)cc1)C(=O)N[C@@H](CC(N)=O)C(=O)N[C@@H](Cc1c[nH]c2ccccc12)C(=O)N[C@@H](CC(C)C)C(=O)N[C@H](C(=O)N[C@@H](CCCNC(=N)N)C(=O)N[C@@H](CCC(N)=O)C(=O)N[C@@H](CCCNC(=N)N)C(=O)N[C@@H](Cc1ccc(O)cc1)C(N)=O)[C@@H](C)O)C(C)C` [Compound 45, N{alpha-4}-(3-methylbutanoyl)-N{epsilon-7}-[2-(2-{2-[2-(2-{2-[(4S)-4-carboxy-4-(17-carboxyheptadecanamido)butanamido]ethoxy}ethoxy)acetamido]ethoxy}ethoxy)acetamido]-[4A,7K,9E,11E,16S,18Q,22V,28Y,30W,31L]hPYY (4-36)] (Isovaleryl-APEK([AEEA-AEEA-γGlu-C18 diacid])PEEEASPESLQRYYVSLRHYYNWLTRQRY-NH2) was tested. Which pKi did it give?
**A.** 8.40
